Results as given in patent US20180289692A1, “TLR MODULATORS AND METHODS OF USE” (CELGENE CORPORATION, priority 2015, published 2018).
Oligonucleotides are written 5' to 3', each unit as a sugar letter and its base; * is a phosphorothioate linkage, no mark a phosphodiester; rarer units and linkages stand in square brackets, end groups in braces. Plain capitals give the bases only. d = 2'-deoxy (DNA)

What was measured:
Format in all cases: cell-based
human pDCs [1] = experiment: Surface ICOS-L and PD-L1 expression in CCR6+CD123+ human pDCs by FACS; details: human pDCs, 24 hrs, FIG. 2B
Protocol: To evaluate surface ICOS-L, PD-L1 expression in the CCR6+CD123+ pDC cell subsets, PBMCs were incubated on ice in the presence of Fc-Block (BD Pharmingen) for 20 minutes, washed, and incubated with antibodies specific for surface molecules or isotype-matched control mAbs. APC-labeled anti-human ICOS-L mAb were purchased from BioLegend, PECY-7-labeled anti-human CCR6 mAb, FITC-labeled anti-human PD-L1 mAb and PerCP-Cy5.5 labeled anti-human CD123 mAb were purchased from BD Biosciences. The stained cells were then subjected to FACS (FACSCanto, BD Biosciences) using FACSDiva software. FACS analysis was performed using FlowJo software. Single, viable cells in the CCR6+CD123+ pDC gates were analyzed. The flow cytometric results are expressed as the percentage and MFI of ICOSL-, or PD-L1-expressing cells in each gate.
pDCs were isolated and ICOS-L expression was analyzed as described in Example 2.

human purified pDCs = experiment: IFN-α secretion from purified human pDCs by ELISA
Text: By contrast, ODN2006 induced IFN-α secretion from purified and matured pDCs, and ODN150 and ODN7040 induced IFN-α secretion from matured pDCs.

human PBMCs = experiment: IL-1β secretion from human PBMCs by ELISA (inflammasome activation); details: 24 hours, FIG. 15
human pDCs [2] = experiment: Intracellular IL-10, TGF-β1 and IDO expression in CCR6+CD123+ human pDCs by FACS; details: 24 hrs, FIG. 2A
Text: To evaluate intracellular IL-10, TGFβ 1 and IDO expression in human pDCs, the cells were first stained with PECY-7-labeled anti-human CCR6 mAb (BD Biosciences), PerCP-Cy5.5 labeled anti-human CD123 mAb (BD Biosciences). Stained cells were then fixed and permeabilized using a Cytofix/Cytoperm kit (BD Biosciences) according to the manufacturer's instructions and stained with PE-labeled anti-human IDO (Biolegend), APC-labeled anti-human IL-10 mAb and FITC-labeled anti-human TGF-β1 (BD Biosciences), or isotype-matched control mAbs. The stained cells were acquired by FACSCanto using the FACSDiva software. FACS analysis was performed using FlowJo software. Single, viable cells in the CCR6+CD123+ pDC gates were analyzed. The flow cytometric results are expressed as the percentage and MFI of IL-10-, TGF-β1- or IDO-expressing cells in each gate. Results are expressed as the mean±SEM of cells quantified.
IL10 was alternatively measured in cellular supernatants by ELISA using standard protocols.

mouse macrophages = experiment: TNFα and IL-10 production in mouse macrophages (Raw Blue cells), MagPix; details: 24 hrs
Protocol: Mouse Raw Blue Reporter Cells (Invivogen) were plated in 96-well plates at 50,000 cells/well in DMEM Media supplemented with 10% FBS, 2 mM L-glutamine, 1% Pen/Strep, […] Normacin. […] The supernatant was harvested and tested for TNFα and IL-10 production using MagPix Multi-Plex technology.

TLR8 = molecular target: T1, TLR8 (Homo sapiens, UniProt Q9NR97); experiment: TLR8 activation in HEK Blue TLR8 reporter cell line after lipo-transfection; details: HEK Blue TLR8 reporter cells, Lipofectamine transfection, FIG. 24
T1 construct: host or cells: HEK Blue TLR8 reporter cells (engineered HEK293, NF-κB inducible SEAP)
T1 sequence (Q9NR97 27-1041): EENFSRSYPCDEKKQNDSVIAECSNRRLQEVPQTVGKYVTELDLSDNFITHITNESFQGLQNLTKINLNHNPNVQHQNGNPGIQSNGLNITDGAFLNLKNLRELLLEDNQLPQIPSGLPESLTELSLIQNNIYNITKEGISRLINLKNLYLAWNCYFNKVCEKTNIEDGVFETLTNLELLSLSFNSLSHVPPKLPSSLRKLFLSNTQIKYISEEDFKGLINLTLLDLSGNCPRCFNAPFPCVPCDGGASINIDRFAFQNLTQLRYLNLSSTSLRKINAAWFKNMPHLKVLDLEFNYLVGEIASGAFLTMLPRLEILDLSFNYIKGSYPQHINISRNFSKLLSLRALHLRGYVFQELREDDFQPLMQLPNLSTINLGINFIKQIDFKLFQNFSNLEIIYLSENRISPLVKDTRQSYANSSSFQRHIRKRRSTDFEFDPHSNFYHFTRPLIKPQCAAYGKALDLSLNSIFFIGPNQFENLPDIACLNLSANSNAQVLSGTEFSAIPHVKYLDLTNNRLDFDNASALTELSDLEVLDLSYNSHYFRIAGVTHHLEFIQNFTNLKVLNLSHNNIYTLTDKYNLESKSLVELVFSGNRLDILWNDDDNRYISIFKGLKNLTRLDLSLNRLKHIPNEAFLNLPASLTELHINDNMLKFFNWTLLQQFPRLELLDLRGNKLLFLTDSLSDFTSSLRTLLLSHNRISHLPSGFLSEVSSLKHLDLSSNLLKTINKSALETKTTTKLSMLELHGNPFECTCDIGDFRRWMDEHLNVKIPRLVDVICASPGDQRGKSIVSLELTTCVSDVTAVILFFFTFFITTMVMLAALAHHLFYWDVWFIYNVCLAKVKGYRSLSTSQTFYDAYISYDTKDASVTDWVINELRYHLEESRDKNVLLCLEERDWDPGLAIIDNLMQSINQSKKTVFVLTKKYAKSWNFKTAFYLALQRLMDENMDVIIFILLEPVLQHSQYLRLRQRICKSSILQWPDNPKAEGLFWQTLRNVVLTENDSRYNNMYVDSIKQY
Protocol: Briefly, the reporter cells were engineered HEK293 cells that express a TLR8 gene and are specially designed for monitoring activity of NF-kβ inducible SEAP (secreted embryonic alkaline phosphatase). Reporter cells were seeded at a density of around 60000/well in 96 wells plates for 72 hrs. Growth medium was removed and Lipofectamine™ (Life Technologies, Foster City, Calif.) 2000/oligonucleotide complex and agonist was added and incubated for 6 hrs. The complex was removed and Detection Medium was added for 16 hrs of incubation. Optical density of SEAP was measured by spectrophotometer at […]. […] See also, Table 7.

With “ODN150: 5′-G*G*A*ACAGTTCGTCCAT*G*G*C-3′, PO except * = PS; antisense to p65 of NF-kB mRNA; tested clinically for ulcerative colitis (DNA dG*dG*dA*dAdCdAdGdTdTdCdGdTdCdCdAdT*dG*dG*dC)” the PD-L1 protein induction (human pDCs [1]) was “can induce”, the “IFN-α secretion from pDCs matured by IL-3 treatment” value (human purified pDCs; 3 μM, 48 hours, ELISA, FIG. 18) was “induced” and the IFN-α (human purified pDCs; pDC, relative strength, Table 6) was “↑ ↑”. For the same substance, the IL-1β induction (human PBMCs) was “did not induce”, the TGF-β1 protein induction (human pDCs [2]) was “can induce” and the TNFα protein expression (mouse macrophages; FIG. 12, COMPOUND (I) up to 10 μM) was “induce”. The IL-10 protein expression (mouse macrophages; FIG. 13, COMPOUND (I) up to 10 μM) was “induce” and the TLR8 activation (TLR8) was “substantially induced”.
